Experiments:
thermolysin [1] = target: T1, thermolysin (Bacillus thermoproteolyticus, UniProt P00800); format: biochemical; conditions: free energy of binding corresponding to Ki
thermolysin [2] = target: T1, thermolysin; format: binding

T1 sequence (P00800 233-548): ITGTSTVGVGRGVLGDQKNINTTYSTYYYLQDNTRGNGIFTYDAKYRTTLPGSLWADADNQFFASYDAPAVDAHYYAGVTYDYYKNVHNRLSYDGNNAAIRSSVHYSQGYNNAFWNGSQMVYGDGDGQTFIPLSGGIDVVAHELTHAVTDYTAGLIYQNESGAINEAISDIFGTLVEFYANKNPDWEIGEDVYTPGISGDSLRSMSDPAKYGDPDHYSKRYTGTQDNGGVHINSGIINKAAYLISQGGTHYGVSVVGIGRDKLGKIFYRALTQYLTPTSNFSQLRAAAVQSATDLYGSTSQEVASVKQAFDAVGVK

SMILES | ΔGKi (thermolysin [1]) | ΔΔH (thermolysin [2])
CNC(=O)[C@H](CC(C)C)NP(=O)([O-])CNC(=O)OCc1ccccc1.[Li+] [Compound 8c, N-(N-(benzyloxycarbonyl)-aminomethylphosphonyl)-N′-methyl-L-leucinamide lithium] | -8.25 kcal/mol | –
CCNC(=O)[C@H](CC(C)C)NP(=O)([O-])CNC(=O)OCc1ccccc1.[Li+] [Compound 8d, N-(N-(benzyloxycarbonyl)-aminomethylphosphonyl)-N′-ethyl-L-leucinamide lithium] | -8.91 kcal/mol | –
CC(C)C[C@H](NP(=O)([O-])CNC(=O)OCc1ccccc1)C(=O)NCC(=O)[O-].[Li+].[Li+] [Compound 8a, N-(N-(N-(benzyloxycarbonyl)-aminomethylphosphonyl)-L-leucinyl)-glycinate di-lithium] | -8.63 kcal/mol | –
CC(C)C[C@H](NP(=O)([O-])CNC(=O)OCc1ccccc1)C(=O)N[C@@H](C)C(=O)[O-].[Li+].[Li+] [Compound 8b, N-(N-(N-(benzyloxycarbonyl)-aminomethylphosphonyl)-L-leucinyl)-alaninate di-Lithium] | -10.5 kcal/mol | -3.18 kcal/mol

Reference: PMC3495596 (Journal of medicinal chemistry, 2012)
